Data from article PMC9127750, “Structure-based design of CDC42 effector interaction inhibitors for the treatment of cancer” (Cell reports, 2022).

Tested on: WM3248 melanoma cells, 486 antibodies
Test: Reverse phase protein arrays (RPPA);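 for RPPA AceCS1.R.V: ratio of treated to vehicle (0 µM) normalized linear protein signal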;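 for RPPA Akt1 pS473.R.V: ratio of treated to vehicle (0 µM) normalized linear protein signal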;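 for RPPA Akt1.R.V: ratio of treated to vehicle (0 µM) normalized linear protein signal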;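 for RPPA Ambra1 pS52.R.C: ratio of treated to vehicle (0 µM) normalized linear protein signal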;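 for RPPA Atg5.R.C: ratio of treated to vehicle (0 µM) normalized linear protein signal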;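 for RPPA Bim.R.V: ratio of treated to vehicle (0 µM) normalized linear protein signal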
Format: cell-based, Human
Conditions: 10 uM, Average
Excerpt: Pellets were snap frozen in liquid nitrogen and shipped to MD Anderson Cancer Center core RPPA facility for RPPA analysis (Table S5). Three biological replicates for each sample were generated.
Nomenclatures on the RPPA heatmaps: name_of_antibody.species_of_antibody.status_of_antibody. V - antibody validated; C - validation of antibody in progress; Q - antibody nonspecific; E – under evaluation; antibodies raised in M - mouse, G - goat, R - rabbit, or T - rat.

## CN(C)c1cccc(Nc2cc(-c3ccccc3)nc(C3CCNCC3)n2)c1 [ARN22089, N1,N1-dimethyl-N3-(6-phenyl-2-(piperidin-4-yl)pyrimidin-4-yl)benzene-1,3-diamine]
  RPPA ATM.R.V: 0.927
  RPPA ATM_pS1981.R.V: 1.057
  RPPA ATP5A.M.C: 0.974
  RPPA ATP5H.R.V: 1.098
  RPPA ATR.R.V: 1.026
  RPPA ATRX.R.C: 0.906
  RPPA ATR_pS428.R.C: 0.986
  RPPA AceCS1.R.V: 0.979
  RPPA Akt1.R.V: 0.907
  RPPA Akt1_pS473.R.V: 0.954
  RPPA Akt2.R.V: 0.941
  RPPA Akt2_pS474.R.C: 1.021
  RPPA Akt.R.V: 0.867
  RPPA Akt_pT308.R.V: 0.981
  RPPA Ambra1_pS52.R.C: 1.030
  RPPA Atg3.R.V: 0.962
  RPPA Atg4B.R.C: 0.898
  RPPA Atg5.R.C: 0.891
  RPPA Atg7.R.V: 0.851
  RPPA Aurora.A.R.C: 1.056
  RPPA Aurora.ABC_pT288_pT232_pT198.R.C: 1.162
  RPPA Axl.R.V: 0.783
  RPPA B7.H4.R.C: 0.993
  RPPA B.Raf.R.C: 0.898
  RPPA B.Raf_pS445.R.V: 0.944
  RPPA BAP1.M.V: 0.990
  RPPA BCL2A1.R.V: 1.335
  RPPA BMK1.Erk5_pT218_Y220.R.V: 0.987
  RPPA BRCA1.M.C: 1.014
  RPPA BRD4.R.V: 1.015
  RPPA Bax.R.V: 0.964
  RPPA Bcl2.R.C: 1.027
  RPPA Bcl.xL.R.V: 1.001
  RPPA BiP.GRP78.M.C: 1.017
  RPPA Bid.R.C: 0.983
  RPPA Bim.R.V: 0.937
  RPPA DNMT1.R.V: 1.022
  RPPA DRP1.R.V: 0.982
  RPPA DUSP4.R.V: 0.898
  RPPA DUSP6.R.C: 0.937
  RPPA Dvl3.R.V: 0.985
  RPPA E.Cadherin.R.V: 1.055
  RPPA EGFR.R.V: 0.930
  RPPA EGFR_pY1068.R.C: 1.016
  RPPA EGFR_pY1173.R.V: 0.991
  RPPA EMA.M.C: 1.130
  RPPA ENY2.M.C: 1.020
  RPPA ER.a.R.V: 0.940
  RPPA ER.a_pS118.R.V: 0.975
  RPPA ERCC5.R.C: 0.879
  RPPA EVI1.R.V: 1.063
  RPPA Elk1_pS383.R.C: 0.992
  RPPA Enolase.1.R.V: 0.999
  RPPA EphA2.R.V: 1.002
  RPPA EphA2_pS897.R.C: 1.008
  RPPA EphA2_pY588.R.C: 0.983
  RPPA Erk5.R.V: 0.909
  RPPA FABP5.R.C: 1.006
  RPPA FAK.R.C: 0.977
  RPPA FAK_pY397.R.V: 1.056
  RPPA FANCD2.R.V: 1.010
  RPPA FASN.R.V: 0.855
  RPPA FGF.basic.R.C: 0.941
  RPPA FN14.R.C: 1.032
  RPPA FOXM1.R.V: 1.022
  RPPA FOXO3.R.V: 1.030
  RPPA FRS2.alpha_pY196.R.V: 1.286
  RPPA FTO.R.V: 1.004
  RPPA Fibronectin.R.V: 0.843
  RPPA FoxO3a_pS318_S321.R.C: 1.028
  RPPA G6PD.R.V: 1.065
  RPPA GATA3.M.V: 1.016
  RPPA GATA6.R.V: 1.046
  RPPA GCLC.R.C: 0.968
  RPPA GCLM.R.V: 1.026
  RPPA GCN5L2.R.V: 0.929
  RPPA GGPS1.M.V: 1.006
  RPPA GRB2.R.V: 0.910
  RPPA GRB7.R.V: 0.970
  RPPA GSK.3B.R.C: 0.917
  RPPA Gab2.R.V: 0.984
  RPPA Gli1.R.C: 1.007
  RPPA Gli3.R.C: 0.971
  RPPA Glucocorticoid.Receptor.R.V: 1.081
  RPPA Glutamate.D1.2.R.V: 1.054
  RPPA Glutaminase.R.C: 0.935
  RPPA Granzyme.B.R.V: 0.974
  RPPA Grp75.R.C: 1.080
  RPPA Gys.R.V: 0.978
  RPPA Gys_pS641.R.V: 1.007
  RPPA H2AX_pS139.R.C: 0.966
  RPPA HER2.M.V: 1.022
  RPPA HER3.R.V: 0.985
  RPPA HER3_pY1289.R.C: 0.975
  RPPA HES1.R.V: 0.990
  RPPA Heregulin.R.V: 0.902
  RPPA X4E.BP1.R.V: 0.842
  RPPA X4E.BP1_pS65.R.V: 1.009
  RPPA X4E.BP1_pT37_T46.R.V: 1.014
  RPPA X14.3.3.zeta.R.V: 1.029
  RPPA X14.3.3εM.C: 1.000
  RPPA X53BP1.R.V: 0.942
  RPPA b.Actin.R.C: 1.019
  RPPA b.Catenin_pT41_S45.R.V: 1.005
  RPPA c.Abl.R.V: 1.077
  RPPA c.Abl_pY412.R.C: 0.962
  RPPA c.IAP2.R.C: 1.022
  RPPA eIF4E.R.V: 0.979
  RPPA eIF4E_pS209.R.V: 1.021
  RPPA eIF4G.R.C: 0.929
  RPPA level HLA.DQA1.R.V: 1.033
  RPPA level HLA.DR.DP.DQ.DX.R.C: 0.982
  RPPA level HMHA1.R.V: 0.975
  RPPA level HSP27.M.C: 1.029
  RPPA level HSP27_pS82.R.V: 0.988
  RPPA level HSP70.R.C: 0.942
  RPPA level Hexokinase.II.R.V: 0.989
  RPPA level Hif.1αR.C: 0.977
  RPPA level Histone.H3.R.V: 0.887
  RPPA level IDO.R.C: 1.004
  RPPA level IGF1R_pY1135_Y1136.R.V: 0.943
  RPPA level IGFBP2.R.V: 0.781
  RPPA level IGFBP3.M.V: 0.976
  RPPA level IGFRb.R.C: 0.929
  RPPA level IL.6.R.C: 0.956
  RPPA level IMP3.R.C: 1.001
  RPPA level IR.b.R.C: 1.049
  RPPA level IRF.1.R.V: 0.861
  RPPA level IRS1.R.V: 0.974
  RPPA level IRS2.R.C: 0.998
  RPPA level JAB1.M.C: 1.013
  RPPA level JNK2.R.V: 1.853
  RPPA level JNK_pT183_Y185.R.C: 0.981
  RPPA level Jagged1.R.V: 0.989
  RPPA level Jak2.R.V: 0.961
  RPPA level KAP1.R.V: 0.913
  RPPA level KEAP1.R.V: 0.975
  RPPA level LC3A.B.R.C: 0.954
  RPPA level LCN2.R.V: 1.252
  RPPA level LDHA.R.C: 1.005
  RPPA level LRP6_pS1490.R.V: 0.929
  RPPA level Lck.R.V: 0.974
  RPPA level MACC1.R.V: 1.049
  RPPA level MAPK_pT202_Y204.R.C: 0.956
  RPPA level MCT4.R.V: 0.820
  RPPA level MDM2_pS166.R.V: 1.004
  RPPA level MEK1.R.V: 1.435
  RPPA level MEK1_pS217_S221.R.V: 0.992
  RPPA level MEK2.R.V: 0.978
  RPPA level MERIT40.R.C: 0.950
  RPPA level MERIT40_pS29.R.V: 1.020
  RPPA level METTL3.R.V: 1.051
  RPPA level MIF.R.C: 1.063
  RPPA level MIG6.R.V: 1.022
  RPPA level MLH1.M.V: 0.972
  RPPA level MLKL.R.V: 0.916
  RPPA level MMP2.R.V: 0.984
  RPPA level MMP14.R.V: 1.009
  RPPA level MRAP.R.C: 1.048
  RPPA level MSH2.R.C: 1.016
  RPPA level MSH6.R.C: 0.997
  RPPA level MSI2.R.C: 0.997
